Entries after “also recorded” stand apart in the source; their conditions may differ. Read-outs that look alike come from different tables or passages of the source.
How the values were obtained:
Hsp90-IP6K2 interaction [1] = conditions: ref [17], cited from earlier work
Hsp90-IP6K2 pathway = conditions: ref [17]; cited from earlier work
Hsp90-FKBP52 interaction = conditions: not tested in this paper; reference not given; cited from earlier work
[2] = system: IP6K2 over expressed (K2-O/E) HEK 293 cells; assay: cell survival, IP6K2 over expressed vs wild-type HEK 293 cells; format: cell-based; conditions: 48 hours, CCK-8
[3] = ref [6], [8]; cited from earlier work
[4] = system: middle domain of Hsc82 (yeast variant of Hsp90); format: binding; conditions: pull-down, San A-amide-Biotin as probe; His-fusion; Figure 5 lane 3
[5] = system: N-terminal domain of Hsc82 (yeast variant of Hsp90); assay: pull-down with San A-amide-Biotin, Hsc82 N-terminal domain; format: binding; conditions: San A-amide-Biotin as probe, His-fusion, Figure 5 lane 2
Hsp90-IP6K2 interaction [6] = assay: in vitro pull down binding assay, Hsp90-IP6K2
[7] = system: C-terminal domain of Hsc82 (yeast variant of Hsp90); assay: pull-down with San A-amide-Biotin, Hsc82 C-terminal domain; format: binding; conditions: San A-amide-Biotin as probe, His-fusion, Figure 5 lane 4
[8] = system: full length Hsc82 (yeast variant of Hsp90); assay: pull-down with San A-amide-Biotin, Hsc82 full length; format: binding; conditions: San A-amide-Biotin as probe, His-fusion, Figure 5 lane 6
Hsp90 = Hsp90 ATPase activity / ATP hydrolysis; format: biochemical; conditions: Supplementary data, Figure S7
[9] = system: N-middle domain of Hsc82 (yeast variant of Hsp90); assay: pull-down with San A-amide-Biotin, Hsc82 N-middle construct; format: binding; conditions: San A-amide-Biotin as probe, His-fusion, Figure 5 lane 5

Compound: C=CCNC1=C2C[C@@H](C)C[C@H](OC)[C@H](O)[C@@H](C)/C=C(\C)[C@H](OC(N)=O)[C@@H](OC)/C=C\C=C(/C)C(=O)NC(=CC1=O)C2=O [17-AAG, 17-allylamino, 17-demethoxygeldanamycin]
- IP6K2 binding inhibition at 10 μM (in words) (Hsp90-IP6K2 interaction [1]; 10 μM): not inhibited
- effect on IP6K2 binding to Hsp90 (in words) (Hsp90-IP6K2 interaction [1]): did not affect the binding of IP6K2
- effect on IP6K2 binding to Hsp90 (in words) (Hsp90-IP6K2 interaction [1]; listed as 17AAG): FKBP and IP6K2 binding to Hsp90 are not affected
- effect on Hsp90-IP6K2 pathway (in words) (Hsp90-IP6K2 pathway): did not affect this pathway

Compound: CO[C@@H]1[C@@H](OC(N)=O)[C@@H](O)[C@H](Oc2ccc3c(O)c(NC(=O)c4ccc(O)c(CC=C(C)C)c4)c(=O)oc3c2C)OC1(C)C [novobiocin]
- EC50 (Hsp90-IP6K2 interaction [1]; read-out: EC50, inhibition of IP6K2 binding to Hsp90): ~100 µM
- effect on IP6K2 binding to Hsp90 (in words) (Hsp90-IP6K2 interaction [1]): only disrupts Hsp90-IP6K2
- effect on Hsp90-FKBP binding (in words) (Hsp90-FKBP52 interaction): not FKBP binding

Compound: Sansalvamide A-amide [San A-amide]
- fold change in survival difference, with drug vs no drug (3% vs 27% change) ([2]; 25 μM San A-amide, K2-O/E vs wild type HEK 293): ~ 9 fold
- change in cell survival, K2-O/E compared to wild type (control) ([2]; 25 μM San A-amide, change without drug 3%): 27%
- cell survival in K2-O/E compared to wild type (in words) ([2]; 25 μM): cell survival is substantially decreased in cells that over-express IP6K2 compared to wild type cells
- induction of cell death through the Hsp90-IP6K2 pathway (in words) ([2]; 25 μM, HEK 293): induces cell death, at least in part, through the Hsp90-IP6K2 pathway
- apoptosis (in words) [3]: shown to cause apoptosis
- binding to middle domain [4]: partial affinity
- binding to N-terminal domain [5]: only a marginally detectable interaction
- effectiveness relative to novobiocin, IP6K2 binding (in words) (Hsp90-IP6K2 interaction [6]; EC50 ~1 μM vs ~100 μM for novobiocin (ref [17])): significantly more effective binding inhibitor
- inhibition of IP6K2 binding to Hsp90 (in words) (Hsp90-IP6K2 interaction [6]; native Hsp90 from HeLa cells, His-IP6K2, 0-10 μM): able to block both Hsp90-IP6K2 and Hsp90-FKBP interactions; also recorded: blocks the binding of Hsp90 to a client protein; also recorded: inhibits the binding of the C-terminal interacting protein, IP6K2, to Hsp90
- fold potency over Novobiocin at inhibiting C-terminal client proteins (Hsp90-IP6K2 interaction [6]; versus Novobiocin): over 100 fold
- binding to C-terminal domain [7]: no affinity
- binding to full length Hsc82 [8]: bound to full length Hsp90
- effect on ATP hydrolysis by Hsp90 (Hsp90): no affect on ATP hydrolysis
- binding to N-middle construct [9]: optimal affinity; also recorded: specifically binds to the N-middle domain of Hsp90

Reference: article PMC2922868 (ACS medicinal chemistry letters, 2010)
